In PubChem BioAssay AID812 (SRMLSC, 2007) one finds EC50 data, which are given here for 35 compounds.

Calls of active or inactive are those of the source. No rule for the calls is given here.

For this assay, the system named is Saccharomyces cerevisiae lifespan extension, no nicotinamide. The assay can be described thus: yeast lifespan extension without nicotinamide, confirmation, yeast lifespan extension project, S. cerevisiae (AID 812).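 Also: growth read as optical density after 42 hours of incubation at 30C.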
For `CN1C/C(=C/c2cccnc2)C(=O)/C(=C/c2cccnc2)C1`, the EC50 (commonly the concentration giving half of the maximal effect) is > 40 µM (inactive).

On to `O=C(/C=C/c1ccccc1)C1C(=O)c2ccccc2C1=O`, for which the EC50 was > 40 µM (inactive).

As to `CC(C)C(OC(=O)CN1C(=O)COc2ccccc21)C(=O)NC1CCCC1` (stereo not given), the EC50 is > 40 µM (inactive).

`O=[N+]([O-])c1cc2oc3c(c2c(C=NCc2ccccc2)c1O)CCCC3`: the EC50 is > 40 µM (inactive).

Turning to `Cc1ccc2nc(-c3ccc(NC(=O)CSc4ccccc4)cc3)[nH]c2c1`, the EC50 is > 40 µM (inactive).

On to `CCc1ccc2c(c1)CCCN2C(=O)c1ccccc1C(=O)O`, for which the EC50 is > 40 µM (inactive).

For the compound `COc1ccc(/C=N/NC(=O)c2csc(-n3nc(C)cc3C(F)(F)F)n2)cc1`, the EC50 was > 40 µM (inactive).

Turning to `CC[n+]1ccc(C[n+]2ccccc2)c2ccccc21`, the EC50 was > 40 µM (inactive).

Regarding `COc1ccc(C(=O)C(CN2CCOCC2)c2ccccc2)cc1` (stereo not given), the EC50 was > 40 µM (inactive).

Regarding `CCOC(=O)CCS(=O)(=O)c1nc(-c2ccccc2)cc(C(F)(F)F)n1`, the EC50 was > 40 µM (inactive).

As for `c1cncc(-c2nn[nH]n2)c1`, the EC50 is > 40 µM (inactive).

Regarding `COCCOC(=O)/C(=C/c1ccc(OC(=O)c2ccccc2)cc1)C(C)=O`, the EC50 was > 40 µM (inactive).

Turning to `Cc1nn(C(C)(C)C)c(OC(=O)c2ccc(Br)o2)c1Sc1ccccc1`, the EC50 is > 40 µM (inactive).

With `Cc1ccc(C(C2=C(O)CC(C)(C)CC2=O)C2C(=O)CC(C)(C)CC2=O)o1` (stereo not given), the EC50 was > 40 µM (inactive).

Consider `Cn1nnnc1SCCNCC#Cc1ccccc1`, for which the EC50 is > 40 µM (inactive).

For the compound `O=C(Nc1cccnc1)c1c(O)c2cccc3c2n(c1=O)CC3`, the EC50 is > 40 µM (inactive).

On to `CCCCCCC1C(C#N)=C(N)OC2=C1C(=O)CC(C)(C)C2` (stereo not given), for which the EC50 is > 40 µM (inactive).

As for `O=C(O)c1cccc2c1C(=O)N(C1CCCCC1)C2`, the EC50 was > 40 µM (inactive).

For the compound `CC(=O)N1CCN(CCN=CC2=C(O)CC(c3cccs3)CC2=O)CC1` (stereo not given), the EC50 is > 40 µM (inactive).

Take `C/C=C/Cn1c(N2CCCCCC2)nc2c1c(=O)[nH]c(=O)n2C`: the EC50 is > 40 µM (inactive).

For `CCCCNC(=O)/C(C#N)=C/c1cccnc1`, the EC50 is > 40 µM (inactive).

As to `CN(C)C1(c2nnnn2CCOC(=O)Nc2ccc(Cl)cc2)CCCCC1`, the EC50 was > 40 µM (inactive).

`COc1ccc2c(=O)c3c(=O)n(Cc4ccco4)c(-c4ccc(C)cc4)nc3oc2c1`: the EC50 is > 40 µM (inactive).

For the compound `O=C1Nc2ccccc2C12OCC1(CO2)COC2(OC1)C(=O)Nc1ccccc12` (stereo not given), the EC50 was > 40 µM (inactive).

For `CCOc1ccc(/C=C/C(=O)c2c(O)c3ccccc3oc2=O)cc1`, the EC50 is > 40 µM (inactive).

Consider `COC(=O)CC1=NN(c2ccccc2)C(=O)/C1=C\c1ccc(OC)cc1`, for which the EC50 is > 40 µM (inactive).

In the case of `CCOC(=O)CCCNC(=O)COc1ccccc1C#N`, the EC50 was > 40 µM (inactive).

With `O=C1c2ccccc2C(Nc2ccc3c(c2)OCCO3)N1c1ccccn1` (stereo not given), the EC50 was > 40 µM (inactive).

Turning to `O=C1c2ccccc2C(=O)N1OCc1ccccc1`, the EC50 was > 40 µM (inactive).

On to `COc1ccc(O)c(C(=O)c2cc(C#N)c(=O)n(CC3CCCO3)c2)c1` (stereo not given), for which the EC50 is > 40 µM (inactive).

For the compound `O=C(/C(=C/c1ccccc1)n1cncn1)c1ccc(Cl)cc1Cl`, the EC50 was > 40 µM (inactive).

For `CCC(=O)N1CCN(CCN=CC2=C(O)CC(c3cccs3)CC2=O)CC1` (stereo not given), the EC50 is > 40 µM (inactive).

Regarding `CN1CCN(C(=S)Nc2cc([N+](=O)[O-])ccc2Cl)CC1`, the EC50 is > 40 µM (inactive).

On to `N#Cc1c(-c2ccccc2)c(-c2ccccc2)nn(CC(=O)NNC(=O)Nc2ccccc2)c1=O`, for which the EC50 is > 40 µM (inactive).

Regarding `O=C(CCC1CCCC1)c1c(O)c2ccccc2oc1=O`, the EC50 was > 40 µM (inactive).
